Laboratory results reported in patent publication US9624200B2, “Therapeutic piperazines” (DART NEUROSCIENCE (CAYMAN) LTD., priority 2006, dated 2017).

Tested on: PDE4 from human U-937 cells
Assay: PDE4 Inhibition Assay
Type: biochemical
Settings: 1 μM cAMP, [3H]-cAMP, read-out: Potency Class (Inhibitory Concentration) in the PDE4 assay
Description: PDE4 from human U-937 cells was used (see T. J. Torphy, et al., J. Pharmacol. Exp. Ther., 1992, 263, 1195-1205). Test compound at various concentration and/or vehicle was preincubated with 2 μg/ml enzyme in Tris-HCl buffer pH 7.5 for 15 minutes at 25° C. The reaction was initiated by addition of 1 1 μM cAMP and 0.01 1 μM [^3H]-cAMP for another 20 minute incubation period and terminated at 100° C. The resulting [^3H]-AMP was converted to [^3H]-adenosine by addition of snake venom nucleotidase and separated by AG1-X2 resin. An aliquot was removed and counted to determine the amount of [^3H]-adenosine formed. Results were converted to percent inhibition and IC so determined using XLfit from IDBS (ID Business Solutions Ltd., 2 Occam Court, Surrey Research Park, Guildford, Surrey, GU2 7QB UK).
Representative compounds of the present invention were tested and found to have significant PDE4 inhibition in this assay.

Row | SMILES | IC50
1 | CCC(=O)N1CCN(c2ccc(OC)c(OC3CCCC3)c2)C[C@@H]1Cc1ccccc1 [Compound 244, (S)-1-(2-benzyl-4-(3-(cyclopentyloxy)-4-methoxyphenyl)piperazin-1-yl)propan-1-one] | 200 to 1000 nM
2 | NC(=O)CC(=O)N1CCN(c2ccc(OC(F)F)c(OC3CCC3)c2)C[C@@H]1Cc1ccccc1 [Compound 263, (S)-3-(2-benzyl-4-(3-cyclobutoxy-4-(difluoromethoxy)phenyl)piperazin-1-yl)-3-oxopropanamide] | < 200 nM
3 | COc1ccc(N2CCN(C(=O)Cc3cn(C)cn3)[C@@H](Cc3ccccc3)C2)cc1OC1CCCC1 [Compound 317, (S)-1-(2-benzyl-4-(3-(cyclopentyloxy)-4-methoxyphenyl)piperazin-1-yl)-2-(1-methyl-1H-imidazol-4-yl)ethanone] | < 200 nM
4 | CCOc1ccc(N2CCN(C(C)=O)[C@@H](Cn3cccn3)C2)cc1OC1CCCC1 [Compound 254] | > 1000 nM
5 | COc1ccc(N2CCN(C(=O)Cc3nc(N)n[nH]3)[C@@H](Cc3ccccc3)C2)cc1OC(C)C [Compound 337, (S)-2-(3-amino-1H-1,2,4-triazol-5-yl)-1-(2-benzyl-4-(3-isopropoxy-4-methoxyphenyl)piperazin-1-yl)ethanone] | < 200 nM
6 | COc1ccc(N2CCN(C(=O)C(=O)c3ccco3)[C@@H](Cc3ccccc3)C2)cc1OC1CCCC1 [Compound 302, (S)-1-(2-benzyl-4-(3-(cyclopentyloxy)-4-methoxyphenyl)piperazin-1-yl)-2-(furan-2-yl)ethane-1,2-dione] | 200 to 1000 nM
7 | COc1ccc(N2CCN(C(=O)Cc3n[nH]c(C)n3)[C@@H](CC(C)C)C2)cc1OC(C)C [Compound 377, (S)-1-(2-isobutyl-4-(3-isopropoxy-4-methoxyphenyl)piperazin-1-yl)-2-(5-methyl-1H-1,2,4-triazol-3-yl)ethanone] | 200 to 1000 nM
8 | COc1ccc(N2CCN(C(=O)Cc3ncccn3)[C@@H](Cc3ccccc3)C2)cc1OC(C)C [Compound 343, (S)-1-(2-benzyl-4-(3-isopropoxy-4-methoxyphenyl)piperazin-1-yl)-2-(pyrimidin-2-yl)ethanone] | 200 to 1000 nM
9 | COCC(=O)N1CCN(c2ccc(OC)c(OC3CCCC3)c2)C[C@@H]1Cc1ccccc1 [Compound 245, (S)-1-(2-benzyl-4-(3-(cyclopentyloxy)-4-methoxyphenyl)piperazin-1-yl)-2-methoxyethanone] | 200 to 1000 nM
10 | COc1ccc(N2CCN(C(C)=O)[C@@H](CN3CCOCC3)C2)cc1OC1CCCC1 [Compound 250, (S)-1-(4-(3-(cyclopentyloxy)-4-methoxyphenyl)-2-(morpholinomethyl)piperazin-1-yl)ethanone] | > 1000 nM
11 | CCc1nn(C2CCC2)c2cc(N3CCN(C(=O)Cc4n[nH]c(N)n4)[C@@H](Cc4ccccc4)C3)ccc12 [Compound 355, (S)-2-(5-amino-1H-1,2,4-triazol-3-yl)-1-(2-benzyl-4-(1-cyclobutyl-3-ethyl-1H-indazol-6-yl)piperazin-1-yl)ethanone] | < 200 nM
12 | COc1ccc(N2CCN(C(=O)Cc3ccco3)[C@@H](Cc3ccccc3)C2)cc1OC1CCC1 [Compound 314, (S)-1-(2-benzyl-4-(3-cyclobutoxy-4-methoxyphenyl)piperazin-1-yl)-2-(furan-2-yl)ethanone] | 200 to 1000 nM
13 | CC(C)C[C@H]1CN(c2ccc(OC(F)F)c(OCC3CC3)c2)CCN1C(=O)Cc1c[nH]cn1 [Compound 365, (S)-1-(4-(3-(cyclopropylmethoxy)-4-(difluoromethoxy)phenyl)-2-isobutylpiperazin-1-yl)-2-(1H-imidazol-4-yl)ethanone] | 200 to 1000 nM
14 | CCc1nn(C2CCC2)c2cc(N3CCN(C(=O)CC(N)=O)[C@@H](Cc4ccccc4)C3)ccc12 [Compound 264, (S)-3-(2-benzyl-4-(1-cyclobutyl-3-ethyl-1H-indazol-6-yl)piperazin-1-yl)-3-oxopropanamide] | < 200 nM
15 | COc1ccc(N2CCN(Cc3ccc(O)cc3)[C@@H](Cc3ccccc3)C2)cc1OC1CCCC1 [Compound 362, (S)-4-((2-benzyl-4-(3-(cyclopentyloxy)-4-methoxyphenyl)piperazin-1-yl)methyl)phenol] | > 1000 nM
